According to patent US20220055989A1, “CONDENSED PYRROLES AS NOVEL BROMODOMAIN INHIBITORS” (ALBERT LUDWING UNIVERSITÄT FREIBURG, priority 2018, published 2022):
pKd: −log10 of the molar value.

How the values were obtained:
BRD2(2) = molecular target: T1, BRD2(2) (Homo sapiens, UniProt P25440); assay: Bromodomain assay % Ctrl determination BRD2(2); details: lower numbers indicate a stronger binding
T1 construct: T7 phage strains displaying bromodomains were grown in parallel; made in house; host or cells: T7 phage grown in an E. coli host derived from the BL21 strain
Description: (§1) Compounds that bind the bromodomain prevent its binding to the immobilized ligand thus reducing the amount of protein captured. […] Hits are identified by measuring the amount of bromodomain captured in test versus control samples. Bromodomain assays for % Ctrl determination: T7 phage strains displaying bromodomains were grown in parallel in 24-well blocks in an E. coli host derived from the BL21 strain. E. coli were grown to log-phase and infected with T7 phage from a frozen stock (multiplicity of infection=0.4) and incubated with shaking at 32° C. until lysis (90-150 minutes). The lysates were centrifuged (5,000×g) and filtered (0.2 μm) to remove cell debris. […] The liganded beads were blocked with excess biotin and washed with blocking buffer (SeaBlock (Pierce), 1% BSA, 0.05% Tween 20, 1 mM DTT) to remove unbound ligand and to reduce non-specific phage binding. […] Test compounds were prepared as 1000× stocks in 100% DMSO and subsequently diluted 1:25 in monoethylene glycol (MEG). The compounds were then diluted directly into the assays such that the final concentrations of DMSO and MEG were 0.1% and 2.4%, respectively. All reactions were performed in polypropylene 384-well plates in a final volume of 0.02 ml. […] The bromodomain concentration in the eluates was measured by qPCR. […]

HL-60 cells = assay: GI50 in a culture of HL-60 cells; format: cell-based; details: concentration required to reduce the population of a culture of HL-60 cells by 50%
PBRM1(2) [1] = molecular target: T2, PBRM1(2) (Homo sapiens, UniProt Q86U86); assay: Bromodomain assay % Ctrl determination PBRM1(2); details: lower numbers indicate a stronger binding
T2 construct: FALZ, PBRM1-BD2, BPRM1-BDS, TAF1-BD2, TAF1L-BD2; host or cells: T7 phage grown in E. coli host derived from BL21
Description: as §1

BAZ2A = molecular target: T3, BAZ2A (Homo sapiens, UniProt Q9UIF9); assay: Bromodomain assay % Ctrl determination BAZ2A; details: lower numbers indicate a stronger binding
T3 construct: T7 phage strains displaying bromodomains were grown in parallel; made in house; host or cells: T7 phage grown in an E. coli host derived from the BL21 strain
Description: as §1

ATAD2A = molecular target: T4, ATAD2A (Homo sapiens, UniProt Q6PL18); assay: Bromodomain assay % Ctrl determination ATAD2A; details: lower numbers indicate a stronger binding
T4 construct: T7 phage strains displaying bromodomains were grown in parallel; made in house; host or cells: T7 phage grown in an E. coli host derived from the BL21 strain
Description: as §1

SMARCA2 = molecular target: T5, SMARCA2 (Homo sapiens, UniProt P51531); assay: Bromodomain assay % Ctrl determination SMARCA2; details: lower numbers indicate a stronger binding
T5 construct: T7 phage strains displaying bromodomains were grown in parallel; host or cells: T7 phage grown in E. coli host derived from BL21
Description: as §1

BRDT(2) = molecular target: T6, BRDT(2) (Homo sapiens, UniProt Q58F21); assay: Bromodomain assay % Ctrl determination BRDT(2); details: lower numbers indicate a stronger binding
T6 construct: T7 phage strains displaying bromodomains were grown; host or cells: T7 phage in E. coli derived from BL21
Description: as §1

PBRM1(2) [2] = molecular target: T2, PBRM1(2); assay: BROMOscan Kd determination PBRM1(2); format: binding
Description: (§2) Bromodomain profiling was carried out on the basis of BROMOscan™. This platform accounted for the indirect determination of the dissociation constants between 19 bromodomains and the compound of formula (13), by binding competition against a reference immobilized ligand. Compounds that bind the bromodomain prevent its binding to the immobilized ligand thus reducing the amount of protein captured. […] Hits are identified by measuring the amount of bromodomain captured in test versus control samples. Bromodomain assays for Kd determination: T7 phage strains displaying bromodomains were grown in parallel in 24-well blocks in an E. coli host derived from the BL21 strain. E. coli were grown to log-phase and infected with T7 phage from a frozen stock (multiplicity of infection=0.4) and incubated with shaking at 32° C. until lysis (90-150 minutes). The lysates were centrifuged (5,000×g) and filtered (0.2 μm) to remove cell debris. […] Kds were determined using an 11-point 3-fold compound dilution series with one DMSO control point. […] The bromodomain concentration in the eluates was measured by qPCR. […] Most Kds were determined using a compound top concentration=10,000 nM. […] Binding Constants (Kds): Binding constants (Kds) were calculated with a standard dose-response curve using the Hill equation: The Hill Slope was set to −1. […]

BRDT(1, 2) = molecular target: T7, BRDT(1, 2) (Homo sapiens, UniProt Q58F21); assay: BROMOscan Kd determination BRDT(1, 2); format: binding
T7 construct: T7 phage strains displaying bromodomains were grown; host or cells: T7 phage in E. coli derived from BL21
Description: as §2

PCAF = molecular target: T8, PCAF (Homo sapiens, UniProt Q92831); assay: BROMOscan Kd determination PCAF; format: binding
T8 construct: T7 phage strains displaying bromodomains were grown in parallel; host or cells: T7 phage grown in E. coli host derived from BL21
Description: as §2

EP300 = molecular target: T9, EP300 (Homo sapiens, UniProt Q09472); assay: BROMOscan Kd determination EP300; format: binding
T9 construct: T7 phage strains displaying bromodomains were grown; host or cells: T7 phage in E. coli derived from BL21
T9 sequence (Q09472 1049-1156 limits assumed): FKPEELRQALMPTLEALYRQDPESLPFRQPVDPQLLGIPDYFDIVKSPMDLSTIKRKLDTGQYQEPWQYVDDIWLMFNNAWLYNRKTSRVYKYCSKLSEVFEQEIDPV
Description: Bromodomain profiling was carried out on the basis of BROMOscan™. This platform accounted for the indirect determination of the dissociation constants between 19 bromodomains and the compound of formula (13), by binding competition against a reference immobilized ligand. Compounds that bind the bromodomain prevent its binding to the immobilized ligand thus reducing the amount of protein captured. […] Hits are identified by measuring the amount of bromodomain captured in test versus control samples. Bromodomain assays for Kd determination: T7 phage strains displaying bromodomains were grown in parallel in 24-well blocks in an E. coli host derived from the BL21 strain. E. coli were grown to log-phase and infected with T7 phage from a frozen stock (multiplicity of infection=0.4) and incubated with shaking at 32° C. until lysis (90-150 minutes). The lysates were centrifuged (5,000×g) and filtered (0.2 μm) to remove cell debris. […] The liganded beads were blocked with excess biotin and washed with blocking buffer (SeaBlock (Pierce), 1% BSA, 0.05% Tween 20, 1 mM DTT) to remove unbound ligand and to reduce non-specific phage binding. […] Test compounds were prepared as 1000× stocks in 100% DMSO. Kds were determined using an 11-point 3-fold compound dilution series with one DMSO control point. All compounds for Kd measurements are distributed by acoustic transfer (non-contact dispensing) in 100% DMSO. The compounds were then diluted directly into the assays such that the final concentration of DMSO was 0.09%. All reactions performed in polypropylene 384-well plates. Each was a final volume of 0.02 ml. […] The bromodomain concentration in the eluates was measured by qPCR. […] All compounds for Kd measurements are distributed by acoustic transfer (non-contact dispensing) in 100% DMSO. The compounds were then diluted directly into the assays such that the final concentration of DMSO was 0.09%. Most Kds were determined using a compound top concentration=10,000 nM. If the initial Kd determined was <0.169 nM (the lowest concentration tested), the measurement was repeated with a serial dilution starting at a lower top concentration. Binding Constants (Kds): Binding constants (Kds) were calculated with a standard dose-response curve using the Hill equation: The Hill Slope was set to −1. Curves were fitted using a non-linear least square fit with the Levenberg-Marquardt algorithm.

TAF1(2) = molecular target: T10, TAF1(2) (Homo sapiens, UniProt P21675); assay: BROMOscan Kd determination TAF1(2); format: binding
T10 construct: FALZ, PBRM1-BD2, BPRM1-BDS, TAF1-BD2, TAF1L-BD2; host or cells: T7 phage grown in E. coli host derived from BL21
Description: as §2

BRD4(1, 2) = molecular target: T11, BRD4(1, 2) (Homo sapiens, UniProt O60885); assay: BROMOscan Kd determination BRD4(1, 2); format: binding
T11 construct: T7 phage strains displaying bromodomains were grown in parallel; made in house; host or cells: T7 phage grown in an E. coli host derived from the BL21 strain
Description: as §2

T2 sequence (Q86U86 177-287 limits assumed): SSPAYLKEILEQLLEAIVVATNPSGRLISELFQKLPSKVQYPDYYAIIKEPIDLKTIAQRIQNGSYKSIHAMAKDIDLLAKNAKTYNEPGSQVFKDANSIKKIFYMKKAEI
T3 sequence (Q9UIF9 1793-1897 limits assumed): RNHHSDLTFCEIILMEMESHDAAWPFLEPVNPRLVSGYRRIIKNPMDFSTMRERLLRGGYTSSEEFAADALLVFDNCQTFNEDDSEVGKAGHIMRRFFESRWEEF
T1 sequence (P25440 344-453 limits assumed): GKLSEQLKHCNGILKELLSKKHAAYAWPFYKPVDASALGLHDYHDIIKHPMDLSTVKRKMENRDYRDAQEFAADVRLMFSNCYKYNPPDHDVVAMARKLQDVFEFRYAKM
T4 sequence (Q6PL18 980-1092 limits assumed): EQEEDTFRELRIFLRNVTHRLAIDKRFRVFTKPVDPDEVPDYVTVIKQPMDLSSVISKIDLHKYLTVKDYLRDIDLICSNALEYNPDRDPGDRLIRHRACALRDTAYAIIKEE
T5 sequence (P51531 1378-1506 limits assumed): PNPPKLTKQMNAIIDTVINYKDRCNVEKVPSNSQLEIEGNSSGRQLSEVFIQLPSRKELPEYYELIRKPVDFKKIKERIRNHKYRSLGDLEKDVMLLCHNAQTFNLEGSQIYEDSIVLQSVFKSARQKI
T10 sequence (P21675 1519-1628 limits assumed): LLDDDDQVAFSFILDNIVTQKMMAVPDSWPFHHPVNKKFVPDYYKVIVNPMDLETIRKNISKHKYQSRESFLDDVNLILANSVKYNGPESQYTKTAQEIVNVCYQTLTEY
T8 sequence (Q92831 723-827 limits assumed): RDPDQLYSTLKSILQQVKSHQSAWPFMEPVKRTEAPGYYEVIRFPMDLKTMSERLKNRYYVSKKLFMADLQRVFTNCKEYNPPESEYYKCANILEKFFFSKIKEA

COc1ccc(S(=O)(=O)N2CCOCC2)cc1NC(=O)c1[nH]c(C)c2c1CCCCC2=O [Compound 13, N-(2-methoxy-5-(morpholinosulfonyl)phenyl)-3-methyl-4-oxo-2,4,5,6,7,8-hexahydrocyclohepta[c]pyrrole-1-carboxamide]
% Ctrl @ 10 000 nM BRD2(2) (BRD2(2)): 0.1 % Ctrl | GI50HL60 (HL-60 cells): 170 nM | % Ctrl @ 10 000 nM PBRM1(2) (PBRM1(2) [1]): 75 % Ctrl | % Ctrl @ 10 000 nM BAZ2A (BAZ2A): 24 % Ctrl | % Ctrl @ 10 000 nM ATAD2A (ATAD2A): 94 % Ctrl | % Ctrl @ 10 000 nM SMARCA2 (SMARCA2): 83 % Ctrl | % Ctrl @ 10 000 nM BRDT(2) (BRDT(2)): 0.65 % Ctrl

Cc1[nH]c(-c2cc(N)ccc2Cl)c2c1C(=O)CCCC2 [Compound 23]
pKd (PBRM1(2) [2]): 5.38 | pKd (BRDT(1, 2)): 6.38 | pKd (PCAF): < 5.00 | pKd (EP300): 5.92 | pKd (TAF1(2)): 5.39 | pKd (BRD4(1, 2)): 6.80
